Measurements taken from patent US6423699B1, “Combination therapies using benzimidazolones” (American Home Products Corporation, priority 1999, dated 2002).
Several values for one entry are separate records, joined by “and”; a condition that tells them apart may be missing. Equal values may be shown once.

System: rat uterine decidualization
Assay: Rat decidualization assay
Type: in vivo
Settings: decidual response; for Estimated average EC50 (mg/kg s.c.): average over dose-response curves; for Estimated EC50 (mg/kg s.c.), individual studies: ovariectomized rats, uterine wet weight
Experimental: 2. Rat Decidualization Assay
b. Animals (RACUC protocol #5002)
The animals are treated once daily for seven days.
Uteri are removed and trimmed of fat.
Body weight: Mean total animal body weight (default-kg)
Decidual response: [(D−C)/C]×100%

SMILES	Estimated average EC50 (mg/kg s.c.)	Estimated EC50 (mg/kg s.c.), individual studies
C#C[C@]1(O)CC[C@H]2[C@@H]3CCC4=CC(=O)CC[C@@H]4[C@H]3C(=C)C[C@@]21CC [3-Ketodesogestrel]	0.10	0.10 mg/kg s.c. and 0.06 mg/kg s.c. and 0.11 mg/kg s.c.
C#C[C@]1(O)CC[C@H]2[C@@H]3CCC4=CC(=O)CC[C@@H]4[C@H]3CC[C@@]21CC [Levonorgestrel]	0.10	0.08 mg/kg s.c. and 0.12 mg/kg s.c. and 0.09 mg/kg s.c. (2×)
CC(=O)O[C@]1(C(C)=O)CC[C@H]2[C@@H]3C[C@H](C)C4=CC(=O)CC[C@]4(C)[C@H]3CC[C@@]21C [MPA, medroxyprogesterone acetate]		0.42 mg/kg s.c. and 0.39 mg/kg s.c. (2×)
CC(=O)[C@H]1CC[C@H]2[C@@H]3CCC4=CC(=O)CC[C@]4(C)[C@H]3CC[C@]12C [Progesterone]	5.62	5.50 mg/kg s.c.
